Earlier results, collected in patent US20240123021A1, “PHARMACEUTICAL COMPOSITIONS” (EXTROVIS AG, priority 2021, published 2024).
Square brackets hold non-standard residues; d marks the D form. Peptide text beside a SMILES is read from it. dPhe(4-Cl) = N[C@H](Cc1ccc(Cl)cc1)C(=O)O; d2Nal = N[C@H](Cc1ccc2ccccc2c1)C(=O)O; dCit = NC(=O)NCCC[C@@H](N)C(=O)O; d3Pal = N[C@H](Cc1cccnc1)C(=O)O

Settings: according to Cetrotide EPAR scientific discussion

Compound	aggregation and gelling in solution (in solution)	stability (thermal, aqueous solution)
Acetyl-D-3-(2′-naphtyl)-alanine-D-4-chlorophenylalanine-D-3-(3′-pyridyl)alanine-L-serine-L-tyrosine-D-citruline-L-leucine-L-arginine-L-proline-D-alanine-amide [Cetrorelix]	tends to aggregate and gel	
CC(=O)N[C@H](Cc1ccc2ccccc2c1)C(=O)N[C@H](Cc1ccc(Cl)cc1)C(=O)N[C@H](Cc1cccnc1)C(=O)N[C@@H](CO)C(=O)N[C@@H](Cc1ccc(O)cc1)C(=O)N[C@H](CCCNC(N)=O)C(=O)N[C@@H](CC(C)C)C(=O)N[C@@H](CCCNC(=N)N)C(=O)N1CCC[C@H]1C(=O)N[C@H](C)C(N)=O [Cetrorelix acetate] (Ac-[d2Nal][dPhe(4-Cl)][d3Pal]SY[dCit]LRP[dA]-NH2)		thermally labile and unstable in aqueous solution
